Measurements: patent US20200187505A1, “SEED, SOIL, AND PLANT TREATMENT COMPOSITIONS” (RALCO NUTRITION, INC., priority 2017, published 2020)

Tested on: soy
Conditions: in-furrow, five grams per acre, versus check; for average soybean seed weight per pot: FIG. 49
Text: The Generate was applied at a rate one pint per acre. The remaining compositions were applied at a rate of five grams per acre. The soy was planted in May and harvested in October, with fertilizer applications in June and July.

Row | Substance | average soybean seed weight per pot | total average soybean seed weight (FIG. 48)
1 | nickel ammonium citrate | increase seed weight over the check | –
2 | nickel lactate | increase seed weight over the check | increase total average soybean seed weight above the check
